US20140221397A1, “FIBROSIS INHIBITOR” (Nippon Shinyaku Co., Ltd., priority 2008, published 2014)

Columns and labels:
[1] = tested on: interstitial pneumonia model mice induced by bleomycin; conditions: Non-Patent Document 1; cited from earlier work
[2] = tested on: Human Lung fibroblasts; assay: Proliferation of human lung fibroblasts stimulated by EGF (Test Example 1); type: cell-based; conditions: EGF stimulation, 10 μL of a 100 μM solution per well, 48 hours, FIG. 1
Description: Human Lung fibroblasts (manufactured by Lonza Walkersville; hereinafter, the same product will be used) were cultured in growth medium, which consisted of basal medium for human lung fibroblasts (manufactured by Lonza Walkersville; hereinafter, the same product will be used and referred to as “basal medium”) with FGM-2 additional factor set (manufactured by Lonza Walkersville; hereinafter, the same product will be used) under the condition of 37° C. and 5% CO2. The human lung fibroblasts were seeded in 96-well plate at 1×10^3 cell/well and incubated overnight in growth medium.
The fibroblasts were washed once with 100 μL of phosphate-buffered saline (manufactured by Nissui Seiyaku; hereinafter, the same product will be used) and 100 μL of basal medium was added thereto followed by incubation for 24 hours. They were further washed with 100 μL of phosphate-buffered saline once and then basal medium was added in an amount of 80 μL/well. Ten μL of a 100 μM solution of the compound A or the compound B was added to each well and incubated for 2 hours. […]
After incubating for 48 hours, absorbance at 490 nm was measured using Cell Titer 96, AQueous Assay (manufactured by Promega) for the analysis of cell proliferation activity. For the measurement of the absorbance, a microplate reader (Benchmark, manufactured by Bio-Rad; hereinafter, the same one will be used) was used.

[3] = tested on: Human Lung fibroblasts; assay: Proliferation of human lung fibroblasts stimulated by TGF-α (Test Example 2); type: cell-based; conditions: TGF-α stimulation, 10 μL of a 1 μM solution per well, 48 hours, FIG. 2
Description: Human lung fibroblasts were incubated in growth medium under the condition of 37° C. and 5% CO2. The human lung fibroblasts were seeded in 96-well plate at 3×10^3 cell/well and incubated overnight in growth medium.
The fibroblasts were washed once with 100 μL of phosphate-buffered saline. Then basal medium was added thereto and incubation was conducted for 24 hours. They were further washed with 100 μL of phosphate-buffered saline once and then basal medium was added in an amount of 80 μL/well. Ten μL of a 1 μM solution of the compound A was added to each well and incubated for 2 hours. The solution used therefor was prepared in such a manner that the compound A was previously dissolved in DMSO and the resulting 1 mM solution was diluted 100-fold with basal medium. For the non-stimulated control group and the control group, DMSO which was diluted 100-fold with the basal medium was used.
Then a 100 ng/mL solution of transforming growth factor-α (TGF-α) (manufactured by Chemicon) was added in an amount of 10 μL to each well and incubated for 48 hours. For a non-stimulated control group, the basal medium was used.
After incubating for 48 hours, absorbance at 490 nm was measured, in the same way as in Test Example 1, using a reagent for the analysis of cell proliferation activity. For the measurement of the absorbance, a microplate reader was used.

[4] = tested on: Human Lung fibroblasts; assay: Collagen production (PIP) in human lung fibroblasts stimulated by TGF β1 (Test Example 3); type: cell-based; conditions: TGF β1 stimulation, 10 μL of 0.1, 1, 10 or 100 μM solution per well, 48 hours, FIG. 3
Description: Human lung fibroblasts were seeded in 96-well plate at 5×10^3 cells/well and incubated in the growth medium in the same way as in Test Example 1 overnight. The fibroblasts were washed once with 100 μL of basal medium and 100 μL of basal medium was added thereto followed by incubating for 24 hours. They were further washed once with 100 μL of basal medium and then 80 μL/well of basal medium was added. A 0.1, 1, 10 or 100 μM solution of the compound A was added in an amount of 10 μL to each well. […] After incubating for 48 hours, the medium was recovered for measuring the concentration of the type I pro-collagen C terminal peptide (PIP) in the medium, and after an addition of 100 μL of the basal medium, the cell proliferation activity was measured using 3-(4,5-dimethyl-2-thiazolyl)-2,5-diphenyl-2H-tetrazolium bromide (MTT) (manufactured by Nacalai Tesque). Measurement of the cell proliferation activity was conducted in such a manner that 10 μL of a 5 mg/mL MTT stock solution was added to each well, and after incubation for 4 hours, 100 μL of a 0.04M isopropanol solution of hydrochloric acid was added to each well, followed by the absorbance measurement at 595 nm (reference wavelength: 655 nm) using a microplate reader. […]

[5] = tested on: type I collagen al chain (COL 1α1) mRNA; assay: COL 1α1 mRNA expression in human lung fibroblasts stimulated by TGF β1, real-time quantitative PCR (Test Example 4); type: cell-based; conditions: TGF β1 stimulation, 24 hours, corrected for GAPDH, FIG. 4
Description: (§1) Human lung fibroblasts were seeded in 24-well plate at 1×10^5 cells/well and incubated in growth medium in the same way as in Test Example 1 overnight. The fibroblasts were washed once with 500 μL of basal medium, and added with 500 μL of basal medium followed by incubation for 24 hours. They were further washed once with 500 μL of basal medium and then 400 μL/well of basal medium was added. A 1, 10 or […] of the compound A prepared by the same manner as in Test Example 3 was added in an amount of 50 μL to each well. For the non-stimulated control group and the control group, DMSO which was diluted 100-fold with basal medium was added in an amount of 50 μL. […] Using the cDNA prepared as above as a template, expressed amount of mRNA for type I collagen al chain (COL 1α1), type I collagen α2 chain (COL 1α2), α smooth muscle actin (ACTA), TGF β1 and glyceraldehydes 3-phosphate dehydrogenase (GAPDH) were measured by means of a real-time quantitative PCR method. The real-time quantitative PCR was conducted using Platinum SYBR Green qPCR Super-Mix-UDG with ROX (manufactured by Invitrogen) and a primer being specific to each gene in accordance with the manual attached to the Platinum SYBR Green qPCR Super-Mix-UDG with ROX using ABI PRISM 7000 (Applied Biosystems). […]

[6] = tested on: type I collagen α2 chain (COL 1α2) mRNA; assay: COL 1α2 mRNA expression in human lung fibroblasts stimulated by TGF β1, real-time quantitative PCR (Test Example 4); type: cell-based; conditions: TGF β1 stimulation, 24 hours, corrected for GAPDH, FIG. 5
Description: as §1

[7] = tested on: α smooth muscle actin (ACTA) mRNA; assay: ACTA mRNA expression in human lung fibroblasts stimulated by TGF β1, real-time quantitative PCR (Test Example 4); type: cell-based; conditions: TGF β1 stimulation, 24 hours, corrected for GAPDH, FIG. 6
Description: as §1

[8] = tested on: TGF β1 mRNA; assay: TGF β1 mRNA expression in human lung fibroblasts stimulated by TGF β1, real-time quantitative PCR (Test Example 4); type: cell-based; conditions: TGF β1 stimulation, 24 hours, corrected for GAPDH, FIG. 7
Description: as §1

[9] = tested on: Rat renal interstitial cells (NRF 49F cells); assay: Proliferation of rat renal interstitial cells stimulated by PDGF BB, MTT (Test Example 5); type: cell-based; conditions: PDGF BB stimulation, 10 μL of a 100 μM solution per well, 48 hours, FIG. 8
Description: Rat renal interstitial cells (NRF 49F cells) were seeded in 96-well plate at 1×10^4 cells/well and incubated in an Minimum Essential Medium (MEM medium; manufactured by Nippon Seiyaku; hereinafter, the same product will be used) containing 10% of bovine fetal serum (manufactured by JRH Bioscience; hereinafter, the same product will be used) under the condition of 37° C. and 5% CO2 overnight. The cells were washed once with an MEM medium containing no bovine fetal serum (hereinafter, referred to as “serum-free MEM medium”), and 100 μL of the serum-free MEM medium was added thereto followed by incubation for 24 hours. After washing with serum-free MEM medium once, serum-free MEM medium was added in an amount of 80 μL/well. A 100 μM solution of the compound A prepared by the same method as in Test Example 1 was added in an amount of 10 μL to each well. For the non-stimulated control group and the control group, DMSO which was diluted 100-fold with serum-free MEM medium was added in an amount of 10 μL. […] After incubating for 48 hours, cell proliferation activity (absorbance) was measured by an MTT method in the same way as in Test Example 3. The evaluation of this test was carried out using the value (cell proliferation level) expressed as a relative value where a mean value of absorption of the non-stimulating control group was defined as 1.

[10] = tested on: Human skin fibroblasts; assay: Collagen production (PIP) in human skin fibroblasts stimulated by TGF β1 (Test Example 6); type: cell-based; conditions: TGF β1 stimulation, 10 μL of 0.1, 1, 10 or 100 μM solution per well, 48 hours, FIG. 9
Description: Human skin fibroblasts (manufactured by Kurabo; hereinafter, the same product will be used) were seeded in 96-well plate at 5×10^3 cells/well and incubated in a Dulbecco's modified Eagle's medium (DMEM medium; manufactured by Nippon Seiyaku; hereinafter, the same product will be used) containing 10% of bovine fetal serum under the condition of 37° C. and 5% CO2 overnight. The human skin fibroblasts were washed once with an DMEM medium containing no bovine fetal serum (hereinafter, referred to as “serum-free DMEM medium”), and 100 μL of serum-free DMEM medium was added thereto followed by incubation for 24 hours. After washing with serum-free DMEM medium once more, serum-free DMEM medium was added in an amount of 80 μL/well. Ten μL of the 0.1, 1, 10 or 100 μM solution of the compound A prepared by the same method as in Test Example 3 was added to each well. […] After incubating for 48 hours, cell proliferation activity (absorbance) was measured by the MTT method, and PIP concentration in the medium was measured in the same way as in Test Example 3. The evaluation of this test was carried out using the value (index for production of collagen) calculated as a relative value where a mean value in the non-stimulated control group was defined as 1 after correcting the measured value of PIP concentration using the cell proliferation activity value (absorbance).

| SMILES | effect for interstitial pneumonia [1] | cell proliferation activity (absorbance at 490 nm) as compared with the control group [2] | cell proliferation activity (absorbance at 490 nm) as compared with the control group [3] | collagen production (index for collagen production, PIP corrected for cell proliferation activity) as compared with the control group [4] | COL 1α1 mRNA expression level as compared with the control group [5] | COL 1α2 mRNA expression level as compared with the control group [6] | ACTA mRNA expression level as compared with the control group [7] | TGF β1 mRNA expression level as compared with the control group [8] | cell proliferation level as compared with the control group [9] | production of collagen (index for production of collagen, PIP corrected for cell proliferation activity) as compared with the control group [10] |
| --- | --- | --- | --- | --- | --- | --- | --- | --- | --- | --- |
| O=C(O)COc1cccc2c1CCC=C2CCO/N=C(\c1ccccc1)c1cccnc1 [ONO-1301] | inhibitive effect |  |  |  |  |  |  |  |  |  |
| CC(C)N(CCCCOCC(=O)O)c1cnc(-c2ccccc2)c(-c2ccccc2)n1 [compound A, 2-{4-[N-(5,6-diphenyl-pyrazin-2-yl)-N-isopropylamino]butyloxy}acetic acid] |  | significantly decreased | significantly decreased | significantly decreased | decreased | decreased | decreased | decreased | significantly decreased | significantly decreased |
| CC(C)N(CCCCOCC(=O)NS(C)(=O)=O)c1cnc(-c2ccccc2)c(-c2ccccc2)n1 [compound B, 2-{4-[N-(5,6-diphenylpyrazin-2-yl)-N-isopropylamino]butyl-oxy}-N-(methylsulfonyl)acetamide] |  | significantly decreased | inhibitive effects |  |  |  |  |  |  |  |
